Key:
Log D (shake-flask) = assay type: physicochemical; conditions: octanol/buffer
Protocol: The determination of log D was based on the shake-flask principle. The compound(s) of the present invention was slurried in an octanol-saturated buffer solution and sonicated to promote dissolution. The solution was filtered to remove any insoluble. After an initial sample was taken, the solution volume is adjusted to 10 ml, and a known volume of buffer-saturated octanol is added. The two-phase solution is mixed, then separated by centrifugation. A second sample from the bottom layer (aqueous layer) was then taken. Both samples, which represented the solution concentrations of the compound before and after addition of octanol, were determined by LC/MS/MS. The determined concentrations were used to calculated the log D value.

Thermodynamic solubility = assay type: physicochemical; conditions: aqueous buffer, thermodynamic from solid, 25° C., 100 mM phosphate buffer at pH 7.4
Excerpt: An aliqout of the saturated solution was then taken and its concentration measured by liquid chromatography/tandem mass spectrometry (LC/MS/MS). LC/MS/MS experimental conditions and instrumental parameters are described in detail in the LC/MS/MS section.

**Q.** Which results are given for `CN(CCO)C(=O)c1ccc(C(=C2CCN(Cc3cscn3)CC2)c2cccc3cccnc23)cc1` [compound of the invention, N-(2-hydroxyethyl)-N-methyl-4-(quinolin-8-yl(1-(thiazol-4-ylmethyl)piperidin-4-ylidene)methyl)benzamide]?
**A.** logD (Log D (shake-flask)): 1.6; solubility at 24 h (Thermodynamic solubility): > 500 µM
